Here are results for 23 compounds from US9845321B2, “1,3-dihydro-2H-benzimidazol-2-one derivatives substituted with heterocycles as respiratory syncytial virus antiviral agents” (JANSSEN SCIENCES IRELAND UC, priority 2012, dated 2017).

The test system of one data set is rgRSV224 virus. Description: Antiviral activity: rgRSV224 (GFP-expressing RSV) replication in HeLa cells, GFP expression measured three days post-virus exposure. The data set is classed as cell-based. As to conditions: human respiratory syncytial virus, 72 h, read-out: WT activity pEC50 (converted). The method, then:
(§1) Black 96-well clear-bottom microtiter plates (Corning, Amsterdam, The Netherlands) were filled in duplicate using a customized robot system with serial 4-fold dilutions of compound in a final volume of 50 μl culture medium [RPMI medium without phenol red, 10% FBS, 0.04% gentamycin (50 mg/ml) and 0.5% DMSO]. Then, 100 μl of a HeLa cell suspension (5×10^4 cells/ml) in culture medium was added to each well followed by the addition of 50 μl rgRSV224 (MOI=0.02) virus in culture medium using a multidrop dispenser (Thermo Scientific, Erembodegem, Belgium). rgRSV224 virus is an engineered virus that includes an additional GFP gene (Hallak et al, 2000) and was in-licensed from the NIH (Bethesda, Md., USA). Medium, virus- and mock-infected controls were included in each test. Cells were incubated at 37° C. in a 5% CO2 atmosphere. Three days post-virus exposure, viral replication was quantified by measuring GFP expression in the cells by a MSM laser microscope (Tibotec, Beerse, Belgium). The EC50 was defined as the 50% inhibitory concentration for GFP expression. In parallel, compounds were incubated for three days in a set of white 96-well microtitier plates (Corning) and the cytotoxicity of compounds in HeLa cells was determined by measuring the ATP content of the cells using the ATPlite kit (PerkinElmer, Zaventem, Belgium) according to the manufacturer's instructions. The CC50 was defined as the 50% concentration for cytotoxicity.

The next data set can be described thus: in vitro. The data set is classed as cell-based. As to conditions: human. As for the experimental part:
as §1

What is called melting point is the temperature, or range, at which the solid turns liquid. For the compound `O=c1n(Cc2nc3nc(Cl)ccc3n2CCCCF)c2cnccc2n1-c1nccs1`, the melting point was found to be 238 °C.
What is called CC50 is the concentration giving 50% cytotoxicity. `CC(C)(C)OC(=O)N1CC(n2c(=O)n(Cc3cc4cc(Cl)ccc4n3CCCS(C)(=O)=O)c3cnccc32)C1` [Compound P1, tert-butyl-3-(3-((5-chloro-1-(3-(methylsulfonyl)propyl)-1H-indol-2-yl)methyl)-2-oxo-2,3-dihydro-1H-imidazo[4,5-c]pyridin-1-yl)azetidine-1-carboxylate] displayed a melting point of 195 °C. In the data set with rgRSV224 virus, the EC50 is 5.01 nM. The compound also gave a CC50 at 3 days in the data set “in vitro” of 50100 nM.
For `CC(C)(C)OC(=O)N1CC(n2c(=O)n(Cc3cc4cc(Cl)ccc4n3CCCS(C)(=O)=O)c3cc(F)ccc32)C1` [Compound P2, tert-butyl 3-(3-((5-chloro-1-(3-(methylsulfonyl)propyl)-1H-indol-2-yl)methyl)-5-fluoro-2-oxo-2,3-dihydro-1H-benzo[d]imidazol-1-yl)azetidine-1-carboxylate], in that order: 185 °C, 12.6 nM and 10000 nM.
The matching figures for `CS(=O)(=O)CCCn1c(Cn2c(=O)n(C3CN(S(C)(=O)=O)C3)c3ccncc32)cc2cc(Cl)ccc21` [Compound P5, 3-((5-chloro-1-(3-(methylsulfonyl)propyl)-1H-indol-2-yl)methyl)-1-(1-(methylsulfonyl)azetidin-3-yl)-1H-imidazo[4,5-c]pyridin-2(3H)-one]: 240 °C, 1.58 nM and 100000 nM.
The matching figures for `CC(=O)N1CC(n2c(=O)n(Cc3cc4cc(Cl)ccc4n3CCCS(C)(=O)=O)c3cnccc32)C1` [Compound P6, 1-(1-acetylazetidin-3-yl)-3-((5-chloro-1-(3-(methylsulfonyl)propyl)-1H-indol-2-yl)methyl)-1H-imidazo[4,5-c]pyridin-2(3H)-one]: 252 °C, 3.98 nM and more than 25100 nM.
In turn, `CC(C)(C)n1c(=O)n(Cc2cc3cc(Cl)ccc3n2CCCS(C)(=O)=O)c2cnccc21` [Compound P8, 1-tert-butyl-3-((5-chloro-1-(3-(methylsulfonyl)propyl)-1H-indol-2-yl)methyl)-1H-imidazo[4,5-c]pyridin-2(3H)-one] displayed a melting point of 226 °C. Also, in the data set with rgRSV224 virus, the EC50 is 2.51 nM. In the data set “in vitro”, this compound had a CC50 at 3 days of 39800 nM.
On to `O=c1n(Cc2cc3cc(Cl)ccc3n2CCCCF)c2cnccc2n1-c1nccs1` [Compound P11, 3-((5-chloro-1-(4-fluorobutyl)-1H-indol-2-yl)methyl)-1-(thiazol-2-yl)-1H-imidazo[4,5-c]pyridin-2(3H)-one], for which the melting point came to 240 °C. Further, the EC50 in the data set with rgRSV224 virus was 12.6 nM. The compound also returned a CC50 at 3 days in “in vitro” of more than 25100 nM.
`COc1ccc(-n2c(=O)n(Cc3cc4cc(Cl)ccc4n3CCCC#N)c3cnccc32)cc1OC` [Compound P19, 4-(5-chloro-2-((1-(3,4-dimethoxyphenyl)-2-oxo-1H-imidazo[4,5-c]pyridin-3(2H)-yl)methyl)-1H-indol-1-yl)butanenitrile] registered a melting point of 176.51 °C. Further, the EC50 with rgRSV224 virus was 0.126 nM. Also, the CC50 at 3 days in “in vitro” is more than 100000 nM.
Turning to `COc1ccc(-n2c(=O)n(Cc3cc4cc(Cl)ccc4n3CCCC#N)c3cnccc32)c(C)c1` [Compound P20, 4-(5-chloro-2-((1-(4-methoxy-2-methylphenyl)-2-oxo-1H-imidazo[4,5-c]pyridin-3(2H)-yl)methyl)-1H-indol-1-yl)butanenitrile], the melting point amounted to 172.59 °C. In the data set with rgRSV224 virus, the EC50 was 0.398 nM. This compound also displayed a CC50 at 3 days in the data set “in vitro” of more than 100000 nM.
The matching figures for `CC(C)CCn1c(Cn2c(=O)n(-c3nccs3)c3ccncc32)nc2nc(Cl)ccc21` [Compound P22, 3-((5-chloro-1-isopentyl-1H-imidazo[4,5-b]pyridin-2-yl)methyl)-1-(thiazol-2-yl)-1H-imidazo[4,5-c]pyridin-2(3H)-one]: 231.23 °C, 3.98 nM and 25100 nM.
For `N#CCCCn1c(Cn2c(=O)n(-c3ccncn3)c3ccncc32)cc2cc(Cl)ccc21` [Compound P24, 4-(5-chloro-2-((2-oxo-1-(pyrimidin-4-yl)-1H-imidazo[4,5-c]pyridin-3(2H)-yl)methyl)-1H-indol-1-yl)butanenitrile], the melting point is 229.17 °C. Further, in the data set on rgRSV224 virus, the EC50 was 10 nM. In the data set “in vitro”, this compound registered a CC50 at 3 days of more than 50100 nM.
The matching figures for `CC(C)CCn1c(Cn2c(=O)n(-c3nccs3)c3ccc(F)cc32)nc2nc(Cl)ccc21` [Compound P25, 3-((5-chloro-1-isopentyl-1H-imidazo[4,5-b]pyridin-2-yl)methyl)-5-fluoro-1-(thiazol-2-yl)-1H-benzo[d]imidazol-2(3H)-one]: 264.42 °C, 15.8 nM and more than 50100 nM.
For `CC(C)CCn1c(Cn2c(=O)n(-c3ccncc3F)c3ccncc32)nc2nc(Cl)ccc21` [Compound P26, 3-((5-chloro-1-isopentyl-1H-imidazo[4,5-b]pyridin-2-yl)methyl)-1-(3-fluoropyridin-4-yl)-1H-imidazo[4,5-c]pyridin-2(3H)-one], in that order: 123.79 °C, 25.1 nM and more than 100000 nM.
In the case of `N#CCCCn1c(Cn2c(=O)n(-c3nccs3)c3ccc(F)cc32)cc2cc(Cl)ccc21` [Compound P27, 4-(5-chloro-2-((6-fluoro-2-oxo-3-(thiazol-2-yl)-2,3-dihydro-1H-benzo[d]imidazol-1-yl)methyl)-1H-indol-1-yl)butanenitrile], the melting point came out at 238.29 °C. For the same compound, the EC50 in the data set with rgRSV224 virus is 31.6 nM. The CC50 at 3 days in the data set “in vitro” is more than 100000 nM.
For `COc1ccc(-n2c(=O)n(Cc3cc4cc(Cl)ccc4n3CCCCF)c3cnccc32)cc1` [Compound P32, 3-((5-chloro-1-(4-fluorobutyl)-1H-indol-2-yl)methyl)-1-(4-methoxy-phenyl)-1H-imidazo[4,5-c]pyridin-2(3H)-one], in that order: 163 °C, 3.98 nM and 79400 nM.
Turning to `COc1ccc(-n2c(=O)n(Cc3cc4cc(Cl)ccc4n3CCCC#N)c3cnccc32)c(F)c1` [Compound P45, 4-(5-chloro-2-((1-(2-fluoro-4-methoxyphenyl)-2-oxo-1H-imidazo[4,5-c]pyridin-3(2H)-yl)methyl)-1H-indol-1-yl)butanenitrile], the EC50 with rgRSV224 virus is 1 nM. The compound also gave a CC50 at 3 days in the data set “in vitro” of 15800 nM.
The matching figures for `Cc1ccc(-n2c(=O)n(Cc3cc4cc(Cl)ccc4n3CCCC#N)c3cnccc32)cc1` [Compound P46, 4-(5-chloro-2-((2-oxo-1-p-tolyl-1H-imidazo[4,5-c]pyridin-3(2H)-yl)methyl)-1H-indol-1-yl)butanenitrile]: 1.26 nM and more than 100000 nM.
The matching figures for `COc1ccc(-n2c(=O)n(Cc3cc4cc(Cl)ccc4n3CCCC#N)c3cnccc32)c(OC)c1` [Compound P47, 4-(5-chloro-2-((1-(2,4-dimethoxyphenyl)-2-oxo-1H-imidazo[4,5-c]pyridin-3(2H)-yl)methyl)-1H-indol-1-yl)butanenitrile]: 1.58 nM and more than 100000 nM.
For `N#CCCCn1c(Cn2c(=O)n(-c3ccncc3)c3ccncc32)cc2cc(Cl)ccc21` [Compound P48, 4-(5-chloro-2-((2-oxo-1-(pyridin-4-yl)-1H-imidazo[4,5-c]pyridin-3(2H)-yl)methyl)-1H-indol-1-yl)butanenitrile], in that order: 2.51 nM and more than 100000 nM.
For `N#CCCCn1c(Cn2c(=O)n(-c3nccs3)c3ccncc32)cc2cc(Cl)ccc21` [Compound P49, 4-(5-chloro-2-((2-oxo-1-(thiazol-2-yl)-1H-imidazo[4,5-c]pyridin-3(2H)-yl)methyl)-1H-indol-1-yl)butanenitrile], in the data set with rgRSV224 virus, the EC50 is 6.31 nM. This compound also yielded a CC50 at 3 days in the data set “in vitro” of more than 25100 nM.
For `COC(=O)c1ccc(-n2c(=O)n(Cc3cc4cc(Cl)ccc4n3CCCC#N)c3cnccc32)cc1` [Compound P51, methyl 4-(3-((5-chloro-1-(3-cyanopropyl)-1H-indol-2-yl)methyl)-2-oxo-2,3-dihydro-1H-imidazo[4,5-c]pyridin-1-yl)benzoate], in that order: 0.794 nM and 39800 nM.
The matching figures for `N#CCCCn1c(Cn2c(=O)n(-c3ccc(C(=O)O)cc3)c3ccncc32)cc2cc(Cl)ccc21` [Compound P52, 4-(3-((5-chloro-1-(3-cyanopropyl)-1H-indol-2-yl)methyl)-2-oxo-2,3-dihydro-1H-imidazo[4,5-c]pyridin-1-yl)benzoic acid]: 0.501 nM and more than 25100 nM.
For `N#CCCCn1c(Cn2c(=O)n(-c3ccc(C(=O)NC4CC4)cc3)c3ccncc32)cc2cc(Cl)ccc21` [Compound P53, 4-(3-((5-chloro-1-(3-cyanopropyl)-1H-indol-2-yl)methyl)-2-oxo-2,3-dihydro-1H-imidazo[4,5-c]pyridin-1-yl)-N-cyclopropylbenzamide], in that order: 0.501 nM and 25100 nM.
